The source of these data is patent US8206983B2, “In vitro methods for the induction and maintenance of plant cell lines as single suspension cells with intact cell walls” (Dow AgroSciences, LLC., priority 2006, dated 2012).

One series deals with JTNT1 single cells. The series can be described thus: Cytological characterization of JTNT1 single cells (nucleus, cell wall). Format: cell-based, tobacco. How it is done: JTNT1 Tobacco single cell initiation and sample collection. JTNT1 Tobacco single cells were initiated in two different media, NT1B with 3% sucrose (NT1B-Suc) and NT1B with 3% glycerol (NT1B-Gly) in 3.5 day culture cycle. […] The flasks were closed with a foam stopper and cultured on a orbital shaker at 130 rpm in dark at 25-28° C. The cultures were sub cultured every 3.5 days up to a period of 14 days. Four samples (Suc/Gly grown cells and the control cultures in Suc/Gly media with 0.2% DMSO) of the cultures were harvested every 3.5 days by spinning the suspension at 3000 rpm for 5 minutes. The samples were immediately lyophilized to prevent any cell oxidation to minimize any deleterious effect on the samples introduced post harvest. Single cells were stained with Hoechst nuclear stain for an hour and observed under scopes for any nuclear anomaly up to two culture cycles.
Cell viability and Cell wall. Established JTNT1 single cells were used to stain with FUN1 (F-7030, Molecular Probes, Invitrogen Inc) cell stain which is used for viability test in yeast, and this contains two color fluorescent probes. The third one, Calcofluor White M2R which stains cell wall, was used to stain the cells. For JTNT1 single cells, […] of FUN1 stain is added and the culture was incubated at room temperature for 20 mins 1 mL fresh culture media was added to wash the excess stain and centrifuged at 3000 rpm; the supernantant was discarded. The cells were examined and imaged on Zeiss ApoTome microscope.
Nucleus. Single cells were stained with Hoechst nuclear stain for an hour and observed on Zeiss Apo Tome for any nuclear anomaly up to two culture cycles. Crystal violet stain was also used as a live nuclear stain for observing nuclear structure for ploidy characterization

A further series relates to PH suspension cells. The series can be described thus: Recovery of Petite Havana suspension cells after DAS-PMTI-1 treatment. Format: cell-based, tobacco. The following applies: after 7 days at 0.5 mM; after 2 weeks. From the text:
BY2 suspension-cultured cells were obtained from Japan tobacco and maintained in LSBY2 medium in a 7 day cycle. Jimsonweed suspension and Pettite Havana tobacco suspensions were initiated from callus initiated at DAS and Xanthi suspensions were procured as a sample from Professor Jack Widholm from UIUC, IL. JT-NT1 suspension cells, obtained from Washington University that are maintained in NT1B medium in 7 day cycle were used only for the pectin degradation enzyme study to separate the cells into single cells. The cells were cultured in shake flasks at 25-28° C. in dark on orbital shakers at 150 rpm. […] The NT-1 cell line is widely used and readily available; though, any tobacco suspension cell line is consistent with the practice of the invention. […]
(§1) Cell expansion and separation were observed by light microscopy (with Nomarski and dark field optics). Spherical cells and single cells were counted by using a hemacytometer to determine the degree of cell expansion and separation, respectively. Cell numbers in aggregates were determined by treating with 5% (wt/vol) chromium trioxide for 16 hr and counting cells (Henshaw et. al, 1966). Cell viability was determined by staining cells (Yokoyama et. al, 1997) with fluorescein diacetate (FDA) and propidium iodide (PI) using a fluorescent microscope (Zeiss Photomicroscope). […]

The subject of another series is BY2 cells. The series can be described thus: Single cell production by MTI in BY2 cells in glycerol medium. Format: cell-based, tobacco. The following applies: glycerol as total carbon source. How it is done:
The effects of Microtubule inhibitors (MTI) on tobacco cell growth in suspension culture were examined. Day seven stationary phase cells (1 ml) were transferred to medium (50 ml) in 250 ml shake flasks (Bokros et al., 1993) containing different concentrations (25 to 1000 nM) of MTI and were grown in cultures for 7 days in dark at 25° C. Both the control and MTI-containing flasks contained a final concentration of 0.5-0.1% (v/v) DMSO. The growth of these chemicals was evaluated in EP12 medium for BY2 cells and NT1B medium for BTI-NT1 cells were the carbon source is substituted with 3% glycerol. The response of these cells was compared with the same medium composition but with 3% sucrose as the Carbon source.

A further series deals with BY2 suspension cells. Briefly: Effects of colchicine on growth and cell separation of BY2 suspension cells. The series is classed as cell-based, tobacco.
Description: BY2 suspension-cultured cells were obtained from Japan tobacco and maintained in LSBY2 medium in a 7 day cycle. Jimsonweed suspension and Pettite Havana tobacco suspensions were initiated from callus initiated at DAS and Xanthi suspensions were procured as a sample from Professor Jack Widholm from UIUC, IL. JT-NT1 suspension cells, obtained from Washington University that are maintained in NT1B medium in 7 day cycle were used only for the pectin degradation enzyme study to separate the cells into single cells. The cells were cultured in shake flasks at 25-28° C. in dark on orbital shakers at 150 rpm. […] Stock concentrations of both the tubulin polymerization inhibitors used in this investigation were dissolved in DMSO to prepare a 0.5 M stock solution. The concentration tested for the pectinase and pectolyase enzymes were in the range of 0.0005% to 0.005%. The tobacco suspension cell lines NT-1 and BY-2, for example, are suitable for the practice of the present invention. BY-2 cells are commercially available and are available according to Nagata et al, for example (Nagata, T., Nemoto, Y., and Hasezawa, S. [1992], Tobacco BY-2 cell line as the “HeLa” cell in the cell biology of higher plants. Int. Rev. Cytol. 132: 1-30). NT-1 cells were originally developed from Nicotiana tabacum L. cv. bright yellow 2. The NT-1 cell line is widely used and readily available; though, any tobacco suspension cell line is consistent with the practice of the invention. It is worth noting that the origins of the NT-1 cell line are unclear. Moreover, the cell line appears variable and is prone to change in response to culture conditions. NT-1 cells suitable for use in the examples below are available from the American Type Culture Collection under accession number ATCC No. 74840. See also U.S. Pat. No. 6,140,075.
as §1, with “Photomicroscope). In order to determine the presence of the cell wall in this single cell cultures optical brightener was used. Calcafluor obtained from Sigma, which is a specific fluorescent dye for cellulose is used in this study, and the cellulose-Calcafluor complexing was observed by fluorescence microscopy (Zeiss Photomicroscope).” for “Photomicroscope).”

A further series relates to JM cells. Briefly: Effects of colchicine on growth and cell separation of Jimson weed suspension cells. Format: cell-based. From the text:
BY2 suspension-cultured cells were obtained from Japan tobacco and maintained in LSBY2 medium in a 7 day cycle. Jimsonweed suspension and Pettite Havana tobacco suspensions were initiated from callus initiated at DAS and Xanthi suspensions were procured as a sample from Professor Jack Widholm from UIUC, IL. JT-NT1 suspension cells, obtained from Washington University that are maintained in NT1B medium in 7 day cycle were used only for the pectin degradation enzyme study to separate the cells into single cells. The cells were cultured in shake flasks at 25-28° C. in dark on orbital shakers at 150 rpm. […] Stock concentrations of both the tubulin polymerization inhibitors used in this investigation were dissolved in DMSO to prepare a 0.5 M stock solution. The concentration tested for the pectinase and pectolyase enzymes were in the range of 0.0005% to 0.005%. The tobacco suspension cell lines NT-1 and BY-2, for example, are suitable for the practice of the present invention. […] The NT-1 cell line is widely used and readily available; though, any tobacco suspension cell line is consistent with the practice of the invention. […]
Cell expansion and separation were observed by light microscopy (with Nomarski and dark field optics). Spherical cells and single cells were counted by using a hemacytometer to determine the degree of cell expansion and separation, respectively. Cell numbers in aggregates were determined by treating with 5% (wt/vol) chromium trioxide for 16 hr and counting cells (Henshaw et. al, 1966). Cell viability was determined by staining cells (Yokoyama et. al, 1997) with fluorescein diacetate (FDA) and propidium iodide (PI) using a fluorescent microscope (Zeiss Photomicroscope). […] Calcafluor obtained from Sigma, which is a specific fluorescent dye for cellulose is used in this study, and the cellulose-Calcafluor complexing was observed by fluorescence microscopy (Zeiss Photomicroscope). […]

`CCOC(=O)COc1nn(-c2ccccc2)c(-c2ccccc2)c1Cl` [DAS-PMTI-1]: in the series on JTNT1 single cells (1 uM, 3.5 d cultures), the “nuclear organization of single cells” value is “single nucleus”. Also, in the series with JTNT1 single cells (14 days of continuous treatments), the nuclear ploidy entry was “low or no nuclear ploidy percentage”. Moreover, the “recovery after subculture in the absence of the compound” value in the series on PH suspension cells is listed as “recovered as single cells with a low frequency”. In addition, the “concentration effective for the production of single cells” value with BY2 cells was 5 to 25 nM.

For the compound `COc1cc2c(c(OC)c1OC)-c1ccc(OC)c(=O)cc1[C@@H](NC(C)=O)CC2` [Colchicine], the single suspension cells entry in the series with BY2 suspension cells (1 mM, 7 days) is on record as “high degree of single suspension cells”; with JM cells (1 mM, 7 days), “high degree of single suspension cells”. Further, the “amount of cells compared with control cultures” value with BY2 suspension cells (1 mM, after 7 days) is listed as “about equal amounts”. Besides, the “suspension cells seen as single intact cells” value with BY2 suspension cells (7 days in 1 mM, then sub-cultured to colchicine-free medium) is on record as approximately 90%. For the same compound, the “cell viability (FDA and PI)” value is “high viability” in the series with BY2 suspension cells (BY2-Variant, 1 mM, 7 d) and “high viability” in the series with JM cells (1 mM, 7 d). For the same compound, the cell growth entry in the series on JM cells (0.5 mM) is on record as “drastically affected”.
